The supplement of paper PMC11451515

Columns and labels:
Settings in all cases: 48 h
NOMO1 [1] = assay: AUC of viability dose-response curve (% viability x log10 dose units); higher = less sensitive
Summary of the method: (§1)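 Area under the curve was integrated by trapezoidal rule from a log-logistic fit of normalised viability, with curves exceeding full viability scaled and quality-control failures removed. The fit had four parameters over log10 doses. Viability came from CellTiter-Glo One luminescence, normalised per plate to DMSO and cell-free wells, after leukemia cells adapted to each medium (500 or 1000 cells/well, 1536-well plates) were exposed to library compounds in DMSO for 48 h at 37°C. The 11 threefold doses ran from 47 μM to 0.79 nM.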

SEM cells [2] = assay: as above
Summary of the method: as §1

P12-Ichikawa [3] = assay: as above
Summary of the method: as §1

NOMO1 [4] = assay: cell viability relative to DMSO control; higher = less cytotoxic
Summary of the method: (§2)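 Viability is expressed as a percentage of DMSO wells within each plate, and cell-free wells serve as background. Seeding densities in the 1536-well plates (5 μl) were 500 cells/well for NOMO1 or SEM leukemia cells and 1000 cells/well for P12-Ichikawa. Each line was adapted for at least four passages in each medium. Library compounds in DMSO were pin-dosed at 47 μM to 0.79 nM (11 points, threefold), and CellTiter-Glo One luminescence was read after 48 h at 37°C.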

SEM cells [5] = assay: as above
Summary of the method: as §2

P12-Ichikawa [6] = assay: as above
Summary of the method: as §2

[7] = RPMI 5 mM glucose + 10% dialyzed FBS
[8] = HPLM + 10% dialyzed FBS, 0.000781 µM
[9] = HPLM + 10% dialyzed FBS, 0.00234 µM
[10] = HPLM + 10% dialyzed FBS, 0.00702 µM
[11] = HPLM + 10% dialyzed FBS, 0.0211 µM
[12] = HPLM + 10% dialyzed FBS, 0.0632 µM
[13] = HPLM + 10% dialyzed FBS, 0.19 µM
[14] = HPLM + 10% dialyzed FBS, 0.569 µM
[15] = HPLM + 10% dialyzed FBS, 1.71 µM
[16] = HPLM + 10% dialyzed FBS, 5.12 µM
[17] = HPLM + 10% dialyzed FBS, 15.4 µM
[18] = HPLM + 10% dialyzed FBS, 46.1 µM
[19] = RPMI 5 mM glucose + 10% FBS, 0.000781 µM
[20] = RPMI 5 mM glucose + 10% FBS, 0.00234 µM
[21] = RPMI 5 mM glucose + 10% FBS, 0.00702 µM
[22] = RPMI 5 mM glucose + 10% FBS, 0.0211 µM
[23] = RPMI 5 mM glucose + 10% FBS, 0.0632 µM
[24] = RPMI 5 mM glucose + 10% FBS, 0.19 µM
[25] = RPMI 5 mM glucose + 10% FBS, 0.569 µM
[26] = RPMI 5 mM glucose + 10% FBS, 1.71 µM
[27] = RPMI 5 mM glucose + 10% FBS, 5.12 µM
[28] = RPMI 5 mM glucose + 10% FBS, 15.4 µM
[29] = RPMI 5 mM glucose + 10% FBS, 46.1 µM
[30] = RPMI 5 mM glucose + 10% dialyzed FBS, 0.000781 µM
[31] = RPMI 5 mM glucose + 10% dialyzed FBS, 0.00234 µM
[32] = RPMI 5 mM glucose + 10% dialyzed FBS, 0.00702 µM
[33] = RPMI 5 mM glucose + 10% dialyzed FBS, 0.0211 µM
[34] = RPMI 5 mM glucose + 10% dialyzed FBS, 0.0632 µM
[35] = RPMI 5 mM glucose + 10% dialyzed FBS, 0.19 µM
[36] = RPMI 5 mM glucose + 10% dialyzed FBS, 0.569 µM
[37] = RPMI 5 mM glucose + 10% dialyzed FBS, 1.71 µM
[38] = RPMI 5 mM glucose + 10% dialyzed FBS, 5.12 µM
[39] = RPMI 5 mM glucose + 10% dialyzed FBS, 15.4 µM
[40] = RPMI 5 mM glucose + 10% dialyzed FBS, 46.1 µM

## CN1CCCN(CC1)C2=CC=C3C(=O)\C(=C/4SC5=C(C=CC=C5)N4C3=N2)C(=O)NCC6=CN=C(C)C=N6
NOMO1 [1]; HPLM + 10% dialyzed FBS
  AUC of viability dose-response curve: 442
NOMO1 [1]; RPMI 5 mM glucose + 10% FBS
  AUC of viability dose-response curve: 468
NOMO1 [1]; [7]
  AUC of viability dose-response curve: 450
SEM cells [2]; HPLM + 10% dialyzed FBS
  AUC of viability dose-response curve: 417
SEM cells [2]; RPMI 5 mM glucose + 10% FBS
  AUC of viability dose-response curve: 335
SEM cells [2]; [7]
  AUC of viability dose-response curve: 374
P12-Ichikawa [3]; HPLM + 10% dialyzed FBS
  AUC of viability dose-response curve: 447
P12-Ichikawa [3]; RPMI 5 mM glucose + 10% FBS
  AUC of viability dose-response curve: 410
P12-Ichikawa [3]; [7]
  AUC of viability dose-response curve: 420
NOMO1 [4]; [8]
  cell viability: 127%
NOMO1 [4]; [9]
  cell viability: 122%
NOMO1 [4]; [10]
  cell viability: 108%
NOMO1 [4]; [11]
  cell viability: 130%
NOMO1 [4]; [12]
  cell viability: 110%
NOMO1 [4]; [13]
  cell viability: 96.6%
NOMO1 [4]; [14]
  cell viability: 125%
NOMO1 [4]; [15]
  cell viability: 105%
NOMO1 [4]; [16]
  cell viability: 116%
NOMO1 [4]; [17]
  cell viability: 115%
NOMO1 [4]; [18]
  cell viability: 94.2%
NOMO1 [4]; [19]
  cell viability: 106%
NOMO1 [4]; [20]
  cell viability: 103%
NOMO1 [4]; [21]
  cell viability: 99.8%
NOMO1 [4]; [22]
  cell viability: 94.1%
NOMO1 [4]; [23]
  cell viability: 94.4%
NOMO1 [4]; [24]
  cell viability: 107%
NOMO1 [4]; [25]
  cell viability: 101%
NOMO1 [4]; [26]
  cell viability: 105%
NOMO1 [4]; [27]
  cell viability: 97.3%
NOMO1 [4]; [28]
  cell viability: 92.4%
NOMO1 [4]; [29]
  cell viability: 86.7%
NOMO1 [4]; [30]
  cell viability: 103%
NOMO1 [4]; [31]
  cell viability: 105%
NOMO1 [4]; [32]
  cell viability: 111%
NOMO1 [4]; [33]
  cell viability: 91.2%
NOMO1 [4]; [34]
  cell viability: 119%
NOMO1 [4]; [35]
  cell viability: 115%
NOMO1 [4]; [36]
  cell viability: 102%
NOMO1 [4]; [37]
  cell viability: 98.7%
NOMO1 [4]; [38]
  cell viability: 82.9%
NOMO1 [4]; [39]
  cell viability: 89%
NOMO1 [4]; [40]
  cell viability: 84.8%
SEM cells [5]; [8]
  cell viability: 110%
SEM cells [5]; [9]
  cell viability: 102%
SEM cells [5]; [10]
  cell viability: 114%
SEM cells [5]; [11]
  cell viability: 91.7%
SEM cells [5]; [12]
  cell viability: 97.9%
SEM cells [5]; [13]
  cell viability: 103%
SEM cells [5]; [14]
  cell viability: 82.2%
SEM cells [5]; [15]
  cell viability: 88.1%
SEM cells [5]; [16]
  cell viability: 81.2%
SEM cells [5]; [17]
  cell viability: 73.6%
SEM cells [5]; [18]
  cell viability: 41.6%
SEM cells [5]; [30]
  cell viability: 89.6%
SEM cells [5]; [31]
  cell viability: 93.9%
SEM cells [5]; [32]
  cell viability: 97.5%
SEM cells [5]; [33]
  cell viability: 92.7%
SEM cells [5]; [34]
  cell viability: 98.1%
SEM cells [5]; [35]
  cell viability: 79.5%
SEM cells [5]; [36]
  cell viability: 68.2%
SEM cells [5]; [37]
  cell viability: 71.3%
SEM cells [5]; [38]
  cell viability: 70.5%
SEM cells [5]; [39]
  cell viability: 56.3%
SEM cells [5]; [40]
  cell viability: 33.1%
P12-Ichikawa [6]; [8]
  cell viability: 114%
P12-Ichikawa [6]; [9]
  cell viability: 108%
P12-Ichikawa [6]; [10]
  cell viability: 119%
P12-Ichikawa [6]; [11]
  cell viability: 108%
P12-Ichikawa [6]; [12]
  cell viability: 110%
P12-Ichikawa [6]; [13]
  cell viability: 113%
P12-Ichikawa [6]; [14]
  cell viability: 108%
P12-Ichikawa [6]; [15]
  cell viability: 103%
P12-Ichikawa [6]; [16]
  cell viability: 92.3%
P12-Ichikawa [6]; [17]
  cell viability: 92.4%
P12-Ichikawa [6]; [18]
  cell viability: 84.6%
P12-Ichikawa [6]; [19]
  cell viability: 113%
P12-Ichikawa [6]; [20]
  cell viability: 124%
P12-Ichikawa [6]; [21]
  cell viability: 122%
P12-Ichikawa [6]; [22]
  cell viability: 109%
P12-Ichikawa [6]; [23]
  cell viability: 117%
P12-Ichikawa [6]; [24]
  cell viability: 108%
P12-Ichikawa [6]; [25]
  cell viability: 95.9%
P12-Ichikawa [6]; [26]
  cell viability: 101%
P12-Ichikawa [6]; [27]
  cell viability: 83.3%
P12-Ichikawa [6]; [28]
  cell viability: 81.8%
P12-Ichikawa [6]; [29]
  cell viability: 54.1%
P12-Ichikawa [6]; [30]
  cell viability: 103%
P12-Ichikawa [6]; [31]
  cell viability: 114%
P12-Ichikawa [6]; [32]
  cell viability: 117%
P12-Ichikawa [6]; [33]
  cell viability: 108%
P12-Ichikawa [6]; [34]
  cell viability: 107%
P12-Ichikawa [6]; [35]
  cell viability: 104%
P12-Ichikawa [6]; [36]
  cell viability: 94.5%
P12-Ichikawa [6]; [37]
  cell viability: 92.1%
P12-Ichikawa [6]; [38]
  cell viability: 85.8%
P12-Ichikawa [6]; [39]
  cell viability: 82.2%
P12-Ichikawa [6]; [40]
  cell viability: 59.6%

## CCCCC(C)(C)[C@H](O)/C=C/[C@H]1[C@H](O)CC(=O)[C@@H]1C/C=C\CCCC(=O)O
NOMO1 [1]; HPLM + 10% dialyzed FBS
  AUC of viability dose-response curve: 437
NOMO1 [1]; RPMI 5 mM glucose + 10% FBS
  AUC of viability dose-response curve: 453
NOMO1 [1]; [7]
  AUC of viability dose-response curve: 431
SEM cells [2]; HPLM + 10% dialyzed FBS
  AUC of viability dose-response curve: 401
SEM cells [2]; RPMI 5 mM glucose + 10% FBS
  AUC of viability dose-response curve: 407
SEM cells [2]; [7]
  AUC of viability dose-response curve: 403
P12-Ichikawa [3]; HPLM + 10% dialyzed FBS
  AUC of viability dose-response curve: 447
P12-Ichikawa [3]; RPMI 5 mM glucose + 10% FBS
  AUC of viability dose-response curve: 437
P12-Ichikawa [3]; [7]
  AUC of viability dose-response curve: 442
SEM cells [5]; [19]
  cell viability: 101%
SEM cells [5]; [20]
  cell viability: 123%
SEM cells [5]; [21]
  cell viability: 131%
SEM cells [5]; [22]
  cell viability: 120%
SEM cells [5]; [23]
  cell viability: 119%
SEM cells [5]; [24]
  cell viability: 137%
SEM cells [5]; [25]
  cell viability: 117%
SEM cells [5]; [26]
  cell viability: 130%
SEM cells [5]; [27]
  cell viability: 51.5%
SEM cells [5]; [28]
  cell viability: 78.2%
SEM cells [5]; [29]
  cell viability: 13.4%
